Source: PubChem BioAssay AID2060621 (Molecular Pharmacology Branch, DTP, NCI, 2025)
Where “and” joins values, the source holds several entries; their conditions need not be identical. Identical values can stand only once. Each block holds one compound with its values, some of them ahead of it.

System: 324938-238-R-J1-PDC complex spheroids viability
Experiment: Anticancer human tumor 324938-238-R-J1-PDC patient-derived bladder carcinoma cell line growth inhibition [CLK]
Details: for viability, T/C: stronger effect = lower value
Outline: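 Patient-derived tumor cells grown as complex spheroids with HUVEC endothelial cells and mesenchymal stem cells, treated with drug combinations. Concentrations descend in half-log steps from near clinical Cmax, or from 10 microM if Cmax unknown.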

[1] = curve of first compound, second compound 0.0316 µM
[2] = curve of first compound, second compound 0.1 µM
[3] = curve of first compound, second compound 0.316 µM
[4] = curve of first compound, second compound 1 µM
[5] = curve of first compound, second compound 3.16 µM
[6] = curve of first compound, second compound 10 µM
[7] = second compound 0.0316 µM, first compound 0.0316 µM
[8] = second compound 0.0316 µM, first compound 0.1 µM
[9] = second compound 0.0316 µM, first compound 0.316 µM
[10] = second compound 0.0316 µM, first compound 1 µM
[11] = second compound 0.0316 µM, first compound 3.16 µM
[12] = second compound 0.0316 µM, first compound 10 µM
[13] = second compound 0.1 µM, first compound 0.0316 µM
[14] = second compound 0.1 µM, first compound 0.1 µM
[15] = second compound 0.1 µM, first compound 0.316 µM
[16] = second compound 0.1 µM, first compound 1 µM
[17] = second compound 0.1 µM, first compound 3.16 µM
[18] = second compound 0.1 µM, first compound 10 µM
[19] = second compound 0.316 µM, first compound 0.0316 µM
[20] = second compound 0.316 µM, first compound 0.1 µM
[21] = second compound 0.316 µM, first compound 0.316 µM
[22] = second compound 0.316 µM, first compound 1 µM
[23] = second compound 0.316 µM, first compound 3.16 µM
[24] = second compound 0.316 µM, first compound 10 µM
[25] = second compound 1 µM, first compound 0.0316 µM
[26] = second compound 1 µM, first compound 0.1 µM
[27] = second compound 1 µM, first compound 0.316 µM
[28] = second compound 1 µM, first compound 1 µM
[29] = second compound 1 µM, first compound 3.16 µM
[30] = second compound 1 µM, first compound 10 µM
[31] = second compound 3.16 µM, first compound 0.0316 µM
[32] = second compound 3.16 µM, first compound 0.1 µM
[33] = second compound 3.16 µM, first compound 0.316 µM
[34] = second compound 3.16 µM, first compound 1 µM
[35] = second compound 3.16 µM, first compound 3.16 µM
[36] = second compound 3.16 µM, first compound 10 µM
[37] = second compound 10 µM, first compound 0.0316 µM
[38] = second compound 10 µM, first compound 0.1 µM
[39] = second compound 10 µM, first compound 0.316 µM
[40] = second compound 10 µM, first compound 1 µM
[41] = second compound 10 µM, first compound 3.16 µM
[42] = second compound 10 µM, first compound 10 µM
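Note: viability read after seven days of drug exposure.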
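Throughout, for viability, T/C: 100% = DMSO vehicle control wells.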

SMILES: COC1C=CCC(C)C(C)S(=O)(=O)NC(=O)c2ccc3c(c2)N(CC2CCC21)CC1(CCCc2cc(Cl)ccc21)CO3 (configuration not stated) + CN1CCN(c2cc(C(=O)Nc3cc4cc(-c5cnn(C)c5)ccc4cn3)ccn2)CC1
IC50 [1]: 440 nM
IC50 [2]: 292 nM
IC50 [3]: < 31.6 nM
IC50 [4]: < 31.6 nM
IC50 [5]: < 31.6 nM
IC50 [6]: < 31.6 nM
viability, T/C [7]: 86.6%
viability, T/C [8]: 87.2%
viability, T/C [9]: 57.6%
viability, T/C [10]: 27.6%
viability, T/C [11]: 17.9%
viability, T/C [12]: 11.9%
viability, T/C [13]: 57.9%
viability, T/C [14]: 52.9%
viability, T/C [15]: 50.4%
viability, T/C [16]: 25.9%
viability, T/C [17]: 18.4%
viability, T/C [18]: 13.9%
viability, T/C [19]: 26.2%
viability, T/C [20]: 26%
viability, T/C [21]: 23.1%
viability, T/C [22]: 13.1%
viability, T/C [23]: 10.5%
viability, T/C [24]: 8.58%
viability, T/C [25]: 1.66%
viability, T/C [26]: 1.72%
viability, T/C [27]: 1.35%
viability, T/C [28]: 0.96%
viability, T/C [29]: 0.86%
viability, T/C [30]: 0.63%
viability, T/C [31]: 0.44%
viability, T/C [32]: 0.47%
viability, T/C [33]: 0.28%
viability, T/C [34]: 0.21%
viability, T/C [35]: 0.22%
viability, T/C [36]: 0.36%
viability, T/C [37]: 0.19%
viability, T/C [38]: 0.17%
viability, T/C [39]: 0.21%
viability, T/C [40]: 0.19%
viability, T/C [41]: 0.25%
viability, T/C [42]: 0.25%

SMILES: CC1COCCN1c1cc(C2(S(C)(=N)=O)CC2)nc(-c2ccnc3[nH]ccc23)n1 (configuration not stated) + CN1CCN(c2cc(C(=O)Nc3cc4cc(-c5cnn(C)c5)ccc4cn3)ccn2)CC1
IC50 [1]: 1100 nM
IC50 [2]: 400 nM
IC50 [3]: < 31.6 nM
IC50 [4]: < 31.6 nM
IC50 [5]: < 31.6 nM
IC50 [6]: < 31.6 nM
viability, T/C [7]: 80.1%
viability, T/C [8]: 79.7%
viability, T/C [9]: 70%
viability, T/C [10]: 51.8%
viability, T/C [11]: 28.8%
viability, T/C [12]: 14.8%
viability, T/C [13]: 55.3%
viability, T/C [14]: 52.7%
viability, T/C [15]: 55.3%
viability, T/C [16]: 39.8%
viability, T/C [17]: 22.9%
viability, T/C [18]: 11.5%
viability, T/C [19]: 24.8%
viability, T/C [20]: 24.1%
viability, T/C [21]: 19%
viability, T/C [22]: 21.9%
viability, T/C [23]: 16.1%
viability, T/C [24]: 11.4%
viability, T/C [25]: 1.54%
viability, T/C [26]: 1.37%
viability, T/C [27]: 1.72%
viability, T/C [28]: 1.08%
viability, T/C [29]: 1.06%
viability, T/C [30]: 0.6%
viability, T/C [31]: 0.25%
viability, T/C [32]: 0.15%
viability, T/C [33]: 0.19%
viability, T/C [34]: 0.16%
viability, T/C [35]: 0.16%
viability, T/C [36]: 1.37%
viability, T/C [37]: 0.16%
viability, T/C [38]: 0.17%
viability, T/C [39]: 0.21%
viability, T/C [40]: 0.16%
viability, T/C [41]: 0.22%
viability, T/C [42]: 0.22%

Further lines, with some results ahead:

IC50 [1]: 256 nM
IC50 [2]: < 31.6 nM
IC50 [3]: < 31.6 nM
IC50 [4]: < 31.6 nM
IC50 [5]: < 31.6 nM
IC50 [6]: < 31.6 nM
SMILES: O=c1[nH]cc(F)c(=O)[nH]1 + CNC(=O)c1ccc(Nc2nc(OC3CCCC3)c3c(-c4ccc5nc(C)oc5c4)c[nH]c3n2)c(OC)c1
viability, T/C [7]: 80.6%
viability, T/C [8]: 77.5%
viability, T/C [9]: 43.5%
viability, T/C [10]: 28.6%
viability, T/C [11]: 22.2%
viability, T/C [12]: 25.1%
viability, T/C [13]: 25.2%
viability, T/C [14]: 24%
viability, T/C [15]: 23.8%
viability, T/C [16]: 19.8%
viability, T/C [17]: 15.7%
viability, T/C [18]: 17.5%
viability, T/C [19]: 19.6%
viability, T/C [20]: 18.5%
viability, T/C [21]: 16.2%
viability, T/C [22]: 14.7%
viability, T/C [23]: 14.3%
viability, T/C [24]: 14.7%
viability, T/C [25]: 16.1%
viability, T/C [26]: 15.2%
viability, T/C [27]: 15.4%
viability, T/C [28]: 13.8%
viability, T/C [29]: 10.5%
viability, T/C [30]: 9.31%
viability, T/C [31]: 15.3%
viability, T/C [32]: 14.8%
viability, T/C [33]: 14%
viability, T/C [34]: 12.7%
viability, T/C [35]: 11.2%
viability, T/C [36]: 11.1%
viability, T/C [37]: 17.8%
viability, T/C [38]: 15.3%
viability, T/C [39]: 15.1%
viability, T/C [40]: 16.6%
viability, T/C [41]: 12.6%
viability, T/C [42]: 10.3%

IC50 (curve of compound): 58.3 nM and 61.8 nM
SMILES: C=CC(=O)Nc1cc(Nc2nccc(-c3cn(C)c4ccccc34)n2)c(OC)cc1N(C)CCN(C)C
viability, T/C (compound 0.000949 µM): 71.7% and 84%
viability, T/C (compound 0.003 µM): 79.8% and 82.5%
viability, T/C (compound 0.00949 µM): 62.2% and 65.2%
viability, T/C (compound 0.03 µM): 69.3% and 61.8%
viability, T/C (compound 0.0949 µM): 36.1% and 45.5%
viability, T/C (compound 0.3 µM): 22.2% and 22.7%

IC50 [1]: 21.5 nM
IC50 [2]: < 3.16 nM
IC50 [3]: < 3.16 nM
IC50 [4]: < 3.16 nM
IC50 [5]: < 3.16 nM
IC50 [6]: < 3.16 nM
SMILES: COc1c(OCCCN2CCOCC2)ccc2c3n(c(=NC(=O)c4cnc(N)nc4)nc12)CCN3 + CNC(=O)c1ccc(Nc2nc(OC3CCCC3)c3c(-c4ccc5nc(C)oc5c4)c[nH]c3n2)c(OC)c1
viability, T/C (second compound 0.0316 µM, first compound 0.00316 µM): 72.8%
viability, T/C (second compound 0.0316 µM, first compound 0.01 µM): 66.1%
viability, T/C [7]: 41.3%
viability, T/C [8]: 19.4%
viability, T/C [9]: 7.32%
viability, T/C [10]: 0.92%
viability, T/C (second compound 0.1 µM, first compound 0.00316 µM): 36.3%
viability, T/C (second compound 0.1 µM, first compound 0.01 µM): 34.7%
viability, T/C [13]: 32.4%
viability, T/C [14]: 19.4%
viability, T/C [15]: 6.56%
viability, T/C [16]: 1.65%
viability, T/C (second compound 0.316 µM, first compound 0.00316 µM): 15.5%
viability, T/C (second compound 0.316 µM, first compound 0.01 µM): 12.7%
viability, T/C [19]: 10.2%
viability, T/C [20]: 4.98%
viability, T/C [21]: 2.15%
viability, T/C [22]: 0.5%
viability, T/C (second compound 1 µM, first compound 0.00316 µM): 15.6%
viability, T/C (second compound 1 µM, first compound 0.01 µM): 12.1%
viability, T/C [25]: 6.92%
viability, T/C [26]: 4.04%
viability, T/C [27]: 1.17%
viability, T/C [28]: 0.45%
viability, T/C (second compound 3.16 µM, first compound 0.00316 µM): 15.5%
viability, T/C (second compound 3.16 µM, first compound 0.01 µM): 12.8%
viability, T/C [31]: 8.33%
viability, T/C [32]: 3.11%
viability, T/C [33]: 0.87%
viability, T/C [34]: 0.39%
viability, T/C (second compound 10 µM, first compound 0.00316 µM): 14.3%
viability, T/C (second compound 10 µM, first compound 0.01 µM): 10.3%
viability, T/C [37]: 6.72%
viability, T/C [38]: 3.94%
viability, T/C [39]: 1.19%
viability, T/C [40]: 0.48%

IC50 [1]: < 31.6 nM
IC50 [2]: < 31.6 nM
IC50 [3]: < 31.6 nM
IC50 [4]: < 31.6 nM
IC50 [5]: < 31.6 nM
IC50 [6]: < 31.6 nM
SMILES: CC(=O)O[C@H]1C(=O)[C@@]2(C)[C@H]([C@H](OC(=O)c3ccccc3)[C@]3(O)C[C@H](OC(=O)[C@H](O)[C@@H](NC(=O)c4ccccc4)c4ccccc4)C(C)=C1C3(C)C)[C@]1(OC(C)=O)CO[C@@H]1C[C@@H]2O + CNC(=O)c1ccc(Nc2nc(OC3CCCC3)c3c(-c4ccc5nc(C)oc5c4)c[nH]c3n2)c(OC)c1
viability, T/C [7]: 14.3%
viability, T/C [8]: 15.1%
viability, T/C [9]: 13.8%
viability, T/C [10]: 14.1%
viability, T/C [11]: 17.1%
viability, T/C [12]: 22%
viability, T/C [13]: 19.8%
viability, T/C [14]: 17.3%
viability, T/C [15]: 22.2%
viability, T/C [16]: 21.9%
viability, T/C [17]: 27.4%
viability, T/C [18]: 35.1%
viability, T/C [19]: 16.9%
viability, T/C [20]: 17.5%
viability, T/C [21]: 26.2%
viability, T/C [22]: 27.8%
viability, T/C [23]: 35.2%
viability, T/C [24]: 37%
viability, T/C [25]: 17.1%
viability, T/C [26]: 17.7%
viability, T/C [27]: 23.9%
viability, T/C [28]: 24.2%
viability, T/C [29]: 31.9%
viability, T/C [30]: 28.6%
viability, T/C [31]: 16.6%
viability, T/C [32]: 18.2%
viability, T/C [33]: 20.1%
viability, T/C [34]: 24.6%
viability, T/C [35]: 27.2%
viability, T/C [36]: 27.2%
viability, T/C [37]: 16.9%
viability, T/C [38]: 18.1%
viability, T/C [39]: 20.6%
viability, T/C [40]: 23.5%
viability, T/C [41]: 25.1%
viability, T/C [42]: 25.6%
